The data set deals with tobacco budworm (Heliothis virescens [Fabricius]). Briefly: surface-treated diet test against tobacco budworm. The format is in vivo. The note with it: 0.25 millimoles of candidate insecticide on the surface of the diet, second instar larvae, five-day exposure; for Percent Mortality: compared to the total number of insects infested; for Percent Growth Inhibition: inhibition of insect weight relative to untreated controls. Here is the method: Candidate insecticides were evaluated for activity against the tobacco budworm (Heliothis virescens [Fabricius]) in a surface-treated diet test.
In this test one mL of molten (65-70° C.) wheat germ-based artificial diet was pipetted into each well of a four by six (24 well) multi-well plate (ID# 430345-15.5 mm dia.×17.6 mm deep; Corning Costar Corp., One Alewife Center, Cambridge, Mass. 02140). The diet was allowed to cool to ambient temperature before treatment with candidate insecticide.
For a determination of insecticidal activity, solutions of the candidate insecticides were prepared for testing using a Packard 204DT Multiprobe® Robotic System (Packard Instrument Company, 800 Research Parkway, Meriden, Conn. 06450), in which the robot first diluted a standard 50 millimolar DMSO solution of candidate insecticide with a 1:1 water/acetone solution (V/V) in a ratio of 1:7 stock solution to water/acetone. The robot subsequently pipetted 40 microliters of the so-prepared solution onto the surface of the diet in each of three wells in the 24 multi-well plate. The process was repeated with solutions of seven other candidate insecticides. Once treated, the contents of the multi-well plate were allowed to dry, leaving 0.25 millimoles of candidate insecticide on the surface of the diet, or a concentration of 0.25 millimolar. Appropriate untreated controls containing only DMSO on the diet surface were also included in this test.
For evaluations of the insecticidal activity of a candidate insecticide at varying rates of application, the test was established as described above using sub-multiples of the standard 50 millimolar DMSO solution of candidate insecticide. For example, the standard 50 millimolar solution was diluted by the robot with DMSO to give 5, 0.5, 0.05, 0.005, 0.0005 millimolar, or more dilute solutions of the candidate insecticide. In these evaluations there were six replicates of each rate of application placed on the surface of the diet in the 24 multi-well plate, for a total of four rates of application of candidate insecticide in each plate.
In each well of the test plate was placed one second instar tobacco budworm larvea, each weighing approximately five milligrams. After the larvae were placed in each well, the plate was sealed with clear polyfilm adhesive tape. The tape over each well was perforated to ensure an adequate air supply. The plates were then held in a growth chamber at 25° C. and 60% relative humidity for five days (light 14 hours/day).
After the five-day exposure period insecticidal activity for each rate of application of candidate insecticide was assessed as percent inhibition of insect weight relative to the weight of insects from untreated controls, and percent mortality when compared to the total number of insects infested.
The test compounds of formula I are identified by numbers that correspond to those in Table 1.

Each structure is given as a SMILES string.

Regarding `O=C(c1ccc(C(F)(F)F)cc1)C1CCNCC1` [Compound 3, 4-piperidyl 4-(trfluoromethyl)phenyl ketone], the “Percent Mortality” value turned out to be 100% and the “Percent Growth Inhibition” value was 100%.

`O=C(c1ccc(OC(F)(F)F)cc1)C1CCN(Cc2ccc(F)cc2)CC1` [Compound 27]: the “Percent Mortality” value is listed as 0% and the “Percent Growth Inhibition” value is 97%.

Consider `CCCOc1ccc(CN2CCC(C(=O)c3ccc(OC(F)(F)F)cc3)CC2)cc1` [Compound 43], for which the “Percent Mortality” value was found to be 100% and the “Percent Growth Inhibition” value is given as 100%.

Take `O=C(c1ccc(OC(F)(F)F)cc1)C1CCN(Cc2ccc(-c3ccccn3)cc2)CC1` [Compound 62]: the “Percent Mortality” value is on record as 100% and the “Percent Growth Inhibition” value came out at 95%.

In the case of `Cn1nnc(-c2ccc(CN3CCC(C(=O)c4ccc(OC(F)(F)F)cc4)CC3)cc2)n1` [Compound 67], the “Percent Mortality” value is 100% and the “Percent Growth Inhibition” value is recorded as 95%.

In the case of `CCn1nnc(-c2ccc(CN3CCC(C(=O)c4ccc(OC(F)(F)F)cc4)CC3)cc2)n1` [Compound 72, 1-{[4-(2-ethyl(1,2,3,4-tetraazol-5-yl))phenyl]methyl}(4-piperidyl)4-(trifluoromethoxy)phenyl ketone], the “Percent Growth Inhibition” value stood at 95%.

`CC(C)NN=C(c1ccc(C(F)(F)F)cc1)C1CCN(Cc2ccc(-c3nnn(C)n3)cc2)CC1` [Compound 91]: the “Percent Mortality” value was determined as 0% and the “Percent Growth Inhibition” value came to 79%.

For the compound `CCn1nnc(-c2ccc(CN3CCC(C(=NNc4ccccn4)c4ccc(OC(F)(F)F)cc4)CC3)cc2)n1` [Compound 92], the “Percent Mortality” value was determined as 0% and the “Percent Growth Inhibition” value came out at 45%.

For `CCn1nnc(-c2ccc(CN3CCC(C(=Cc4ccc(OC(F)(F)F)cc4)c4ccc(Cl)cc4)CC3)cc2)n1` [Compound 94], the “Percent Mortality” value was found to be 100% and the “Percent Growth Inhibition” value is recorded as 100%.

For the compound `COc1ccc(CN2CCC(C(=NNc3ccc(OC(F)(F)F)cc3)c3ccc(OC(F)(F)F)cc3)CC2)cc1` [Compound 96], the “Percent Mortality” value was determined as 100% and the “Percent Growth Inhibition” value is on record as 96%.

For the compound `CCCOc1ccc(CN2CCC(C(=NNc3ccc(OC(F)(F)F)cc3)c3ccc(OC(F)(F)F)cc3)CC2)cc1` [Compound 97], the “Percent Mortality” value is listed as 100% and the “Percent Growth Inhibition” value amounted to 100%.

As to `CCn1nnc(-c2ccc(CN3CCC(C(=NNc4ccc(C)cc4)c4ccc(OC(F)(F)F)cc4)CC3)cc2)n1` [Compound 113], the “Percent Mortality” value was determined as 100% and the “Percent Growth Inhibition” value came out at 100%.

On to `CCn1nnc(-c2ccc(CN3CCC(C(=NNc4ccc(C(C)C)cc4)c4ccc(OC(F)(F)F)cc4)CC3)cc2)n1` [Compound 114], for which the “Percent Mortality” value is given as 100% and the “Percent Growth Inhibition” value amounted to 100%.

`CCn1nnc(-c2ccc(CN3CCC(C(=NNc4ccc(OC)cc4)c4ccc(OC(F)(F)F)cc4)CC3)cc2)n1` [Compound 116]: the “Percent Mortality” value amounted to 100% and the “Percent Growth Inhibition” value amounted to 100%.

As to `CCn1nnc(-c2ccc(CN3CCC(C(=NNc4ccc(C(F)(F)F)cc4)c4ccc(C(F)(F)F)cc4)CC3)cc2)n1` [Compound 118], the “Percent Mortality” value is on record as 100% and the “Percent Growth Inhibition” value is reported as 96%.

Regarding `CCn1nnc(-c2ccc(CN3CCC(C(=NNc4ccc(OC(F)(F)F)cc4)c4ccc(C(F)(F)F)cc4)CC3)cc2)n1` [Compound 119], the “Percent Mortality” value is 100% and the “Percent Growth Inhibition” value is recorded as 100%.

Turning to `CCn1nnc(-c2ccc(CN3CCC(C(=NNc4ccccc4C(F)(F)F)c4ccc(OC(F)(F)F)cc4)CC3)cc2)n1` [Compound 120], the “Percent Mortality” value came to 0% and the “Percent Growth Inhibition” value came to 40%.

For the compound `CCn1nnc(-c2ccc(CN3CCC(C(=NNc4cccc(C(F)(F)F)c4)c4ccc(OC(F)(F)F)cc4)CC3)cc2)n1` [Compound 121], the “Percent Mortality” value was determined as 100% and the “Percent Growth Inhibition” value was 100%.

`CCn1nnc(-c2ccc(CN3CCC(C(=NNc4ccc(C(F)(F)F)cc4)c4ccc(OC(F)(F)F)cc4)CC3)cc2)n1` [Compound 122]: the “Percent Mortality” value stood at 100% and the “Percent Growth Inhibition” value turned out to be 96%.

In the case of `Cn1nnc(-c2ccc(CN3CCC(C(=NNc4ccc(OC(F)(F)F)cc4)c4ccc(OC(F)(F)F)cc4)CC3)cc2)n1` [Compound 123], the “Percent Mortality” value is on record as 100% and the “Percent Growth Inhibition” value is 100%.

As to `CCn1nnc(-c2ccc(CN3CCC(C(=NNc4ccc(OC(F)(F)F)cc4)c4ccc(OC(F)(F)F)cc4)CC3)cc2)n1` [Compound 124], the “Percent Mortality” value turned out to be 100% and the “Percent Growth Inhibition” value was 100%.

As to `CCn1nnc(-c2ccc(CN3CCC(C(=NNc4ccc(S(N)(=O)=O)cc4)c4ccc(OC(F)(F)F)cc4)CC3)cc2)n1` [Compound 125], the “Percent Mortality” value turned out to be 100% and the “Percent Growth Inhibition” value is recorded as 100%.

With `CCn1nnc(-c2ccc(CN3CCC(C(=NNc4ccc([N+](=O)[O-])cc4)c4ccc(OC(F)(F)F)cc4)CC3)cc2)n1` [Compound 126], the “Percent Mortality” value is reported as 100% and the “Percent Growth Inhibition” value was 100%.

With `CCn1nnc(-c2ccc(CN3CCC(C(=NNCc4ccc(C(F)(F)F)cc4)c4ccc(OC(F)(F)F)cc4)CC3)cc2)n1` [Compound 127], the “Percent Mortality” value came to 100% and the “Percent Growth Inhibition” value amounted to 100%.

In the case of `CCn1nnc(-c2ccc(CN3CCC(C(=NNCc4ccc(OC(F)(F)F)cc4)c4ccc(OC(F)(F)F)cc4)CC3)cc2)n1` [Compound 128], the “Percent Mortality” value amounted to 0% and the “Percent Growth Inhibition” value is 96%.

For `CCn1nnc(-c2ccc(CN3CCC(C(=NNS(=O)(=O)c4ccc(C(F)(F)F)cc4)c4ccc(OC(F)(F)F)cc4)CC3)cc2)n1` [Compound 129], the “Percent Mortality” value worked out at 100% and the “Percent Growth Inhibition” value is 95%.

Turning to `CCn1nnc(-c2ccc(CN3CCC(C(=NNS(=O)(=O)c4ccc(OC(F)(F)F)cc4)c4ccc(OC(F)(F)F)cc4)CC3)cc2)n1` [Compound 130], the “Percent Mortality” value is on record as 100% and the “Percent Growth Inhibition” value was found to be 100%.

On to `O=C(NN=C(c1ccc(OC(F)(F)F)cc1)C1CCN(Cc2ccc(Oc3ccccn3)cc2)CC1)c1ccc(Cl)cc1` [Compound 131], for which the “Percent Mortality” value is 50% and the “Percent Growth Inhibition” value is recorded as 100%.

For the compound `O=C(NN=C(c1ccc(OC(F)(F)F)cc1)C1CCN(Cc2ccc(Oc3ccccn3)cc2)CC1)c1ccc(C(F)(F)F)cc1` [Compound 132], the “Percent Mortality” value was 83% and the “Percent Growth Inhibition” value worked out at 100%.

With `Cn1nnc(-c2ccc(CN3CCC(C(=NNC(=O)c4ccccc4Cl)c4ccc(OC(F)(F)F)cc4)CC3)cc2)n1` [Compound 136], the “Percent Mortality” value was 76% and the “Percent Growth Inhibition” value turned out to be 0%.

For `Cn1nnc(-c2ccc(CN3CCC(C(=NNC(=O)c4cccc(Cl)c4)c4ccc(OC(F)(F)F)cc4)CC3)cc2)n1` [Compound 137], the “Percent Mortality” value is given as 100% and the “Percent Growth Inhibition” value worked out at 100%.

Consider `Cn1nnc(-c2ccc(CN3CCC(C(=NNC(=O)c4ccc(Cl)cc4)c4ccc(Cl)cc4)CC3)cc2)n1` [Compound 138], for which the “Percent Mortality” value is listed as 0% and the “Percent Growth Inhibition” value was 14%.

These data come from patent US7365082B2, “N-(substituted arylmethyl)-4-(disubstituted methyl)piperidines and piperazines” (Bayer CropScience AG, priority 2002, dated 2008).
